Data as given in ChEMBL document CHEMBL3792337, “Cardiac Glycosides from the Seeds of Thevetia peruviana” (J Nat Prod, 2016).

Key:
[1] = Cytotoxicity against human MGC803 cells after 48 hrs by MTT assay; type: functional, cell-based; details: MGC-803, 48 h
SW1990 = assay: Cytotoxicity against human SW1990 cells after 48 hrs by MTT assay; type: functional, cell-based; details: SW1990, 48 h
[2] = Cytotoxicity against human LO2 cells after 48 hrs by MTT assay; type: cell-based; details: L02, 48 h
[3] = Cytotoxicity against human P15 cells after 48 hrs by MTT assay; type: functional, cell-based; details: P15, 48 h
MGC-803 = assay: Induction of apoptosis in human MGC803 cells after 24 hrs by annexin V-FITC/propidium iodide staining-based flow cytometry; type: functional, cell-based

Structure (SMILES)	IC50 [1] [nM]	IC50 (SW1990) [nM]	IC50 [2] [nM]	IC50 [3] [nM]	Activity (MGC-803)
CO[C@H]1[C@H](O)[C@H](O[C@H]2CC[C@@]3(C)[C@@H](CC[C@@H]4[C@@H]3CC[C@]3(C)[C@@H](C5=CC(=O)OC5)CC[C@]43O)C2)O[C@@H](C)[C@@H]1O [THEVEFOLIN]	370	30	> 10000	10	Dose-dependent effect
CO[C@H]1[C@H](O)[C@H](O[C@H]2CC[C@@]3(C)[C@H](CC[C@@H]4[C@@H]3CC[C@]3(C)[C@@H](C5=CC(=O)OC5)CC[C@]43O)C2)O[C@@H](C)[C@@H]1O [NERIIFOLIN]	20	30	> 10000	60	Dose-dependent effect
CO[C@H]1[C@H](O)[C@H](O[C@H]2CC[C@@]3(CO)[C@H](CC[C@@H]4[C@@H]3CC[C@]3(C)[C@@H](C5=CC(=O)OC5)CC[C@]43O)C2)O[C@@H](C)[C@@H]1O	40	20	> 10000	80	Dose-dependent effect
CO[C@H]1[C@H](O)[C@H](O[C@H]2CC[C@H]3[C@H](CC[C@@H]4[C@@H]3CC[C@]3(C)[C@@H](C5=CC(=O)OC5)CC[C@]43O)C2)O[C@@H](C)[C@@H]1O	570	530	> 10000	210	Dose-dependent effect
CO[C@@H]1[C@@H](O)[C@@H](O[C@@H]2CC[C@]3(OO)[C@@H](CC[C@H]4[C@H]3CC[C@@]3(C)[C@H](C5=CC(=O)OC5)CC[C@@]43O)C2)O[C@H](C)[C@H]1O[C@@H]1O[C@H](CO)[C@@H](O)[C@H](O)[C@H]1O	> 10000	> 10000	> 10000	7290	–
CO[C@@H]1[C@@H](O)[C@@H](O[C@H]2CC[C@@]3(C(=O)O)[C@H](CC[C@@H]4[C@@H]3CC[C@]3(C)[C@@H](C5=CC(=O)OC5)CC[C@]43O)C2)O[C@H](C)[C@H]1O[C@@H]1O[C@H](CO)[C@@H](O)[C@H](O)[C@H]1O	> 10000	> 10000	> 10000	> 10000	–
CO[C@H]1[C@H](OC(C)=O)[C@H](O[C@H]2CC[C@@]3(C)[C@@H](CC[C@@H]4[C@@H]3CC[C@]3(C)[C@@H](C5=CC(=O)OC5)CC[C@]43O)C2)O[C@@H](C)[C@@H]1O[C@H]1O[C@@H](CO[C@@H]2O[C@H](CO)[C@@H](O)[C@H](O)[C@H]2O)[C@H](O)[C@@H](O)[C@@H]1O	10000	> 10000	> 10000	> 10000	–
